What is called IC50 is the concentration at which inhibition is half-maximal.

For 9 compounds, IC50 results are on record in patent publication US12209102B2, “Heterocyclic compounds and uses thereof” (Kumquat Biosciences Inc., priority 2022, dated 2025).

The structures appear in SMILES notation. Some results are limits rather than exact numbers.

Test [1] concerns the target T1, K-Ras G12S (Homo sapiens, UniProt P01116, G12S).
T1 construct: made in house; host or cells: E. coli BL21 (DE3)
Nature of the test: HTRF resonance energy transfer assay, K-Ras G12S / SOS1 interaction. It is filed as biochemical. To be noted: HTRF assay of Example 5; read-out: IC50 against K-Ras G12S. Put shortly:
(§1)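 Buffer about 5 mM HEPES pH 7.4 with ~150 mM NaCl, ~1 mM DTT, 0.05% BSA, 0.0025% (v/v) Igepal. Protein constructs used at molarity matching the IC50 range studied (e.g. ~500 nM). FRET between tagged K-Ras and hSOS1 measured after short incubation.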
A general note: TR-FRET usually uses a lanthanide donor and a delayed reading to cut background.

Test [2] concerns the target T2, K-Ras G12V (Homo sapiens, UniProt P01116, G12V).
T2 construct: made in house; host or cells: E. coli BL21 (DE3)
In words: HTRF resonance energy transfer assay, K-Ras G12V / SOS1 interaction. It counts as biochemical. The conditions noted are these: HTRF assay of Example 5; read-out: IC50 against K-Ras G12V. The essentials: as §1

The target of test [3] is T3, K-Ras WT (Homo sapiens, UniProt P01116).
T3 construct: made in house; host or cells: E. coli BL21 (DE3)
Nature of the test: HTRF resonance energy transfer assay, K-Ras WT / SOS1 interaction. To be noted: HTRF assay of Example 5; read-out: IC50 against K-Ras WT. It counts as biochemical. Put shortly: as §1

For test [4], the system named is SW620 cells. Nature of the test: Ras cellular assay, growth of cells with K-Ras G12V mutation (CellTiter-Glo). It counts as cell-based. The conditions noted are these: Homo sapiens, SW-620; cell growth, Example 9, G12V mutation; read-out: IC50 against SW620 cells. The essentials: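 IC50 values came from a four-parameter fit of CellTiter-Glo viability, read roughly 6 days after dosing with e.g. a 10-point threefold dilution series. G12V-mutant SW620 cells (e.g. 800 per well) had been plated the previous day in RPMI-1640/10% heat-inactivated FBS, on tissue culture-treated or ultra-low attachment plates.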
Background: In ATP-based viability assays light output follows the ATP content of the culture.

The test system of test [5] is GP2D cells. In words: Ras cellular assay, growth of cells with K-Ras G12D mutation (CellTiter-Glo). It counts as cell-based. To be noted: cell growth, Example 9, G12D mutation, read-out: IC50 against GP2D cells.
In test [6] the target is T4, K-Ras G12D (Homo sapiens, UniProt P01116, G12D).
T4 construct: made in house; host or cells: E. coli BL21 (DE3)
In words: HTRF resonance energy transfer assay, K-Ras G12D / SOS1 interaction. It is filed as biochemical. The conditions noted are these: HTRF assay of Example 5; read-out: IC50 against K-Ras G12D. The essentials:
as §1

Test [7] relates to A549 cells. In words: Ras cellular assay, growth of cells with K-Ras G12S mutation (CellTiter-Glo). It is filed as cell-based. To be noted: Homo sapiens, cell growth, Example 9, G12S mutation, read-out: IC50 against A549 cells. Put shortly: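 Growth inhibition IC50 values come from four-parameter fits of CellTiter-Glo luminescence, read about 6 days after compound addition. G12S-mutant A549 cells (e.g. 800/well, RPMI-1640 + 10% heat-inactivated FBS) were plated in tissue-culture-treated or ultra-low-attachment 384-well format. Dosing began the following day with serial dilutions, e.g. 10 points, 3-fold.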

T4 sequence (P01116 1-188 isoform P01116-2 G12D): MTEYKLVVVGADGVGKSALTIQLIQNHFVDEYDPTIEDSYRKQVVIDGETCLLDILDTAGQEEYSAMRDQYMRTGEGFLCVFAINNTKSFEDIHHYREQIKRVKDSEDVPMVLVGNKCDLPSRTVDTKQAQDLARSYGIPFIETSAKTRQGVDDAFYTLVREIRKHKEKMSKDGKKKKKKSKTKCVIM
T2 sequence (P01116 1-188 isoform P01116-2 G12V): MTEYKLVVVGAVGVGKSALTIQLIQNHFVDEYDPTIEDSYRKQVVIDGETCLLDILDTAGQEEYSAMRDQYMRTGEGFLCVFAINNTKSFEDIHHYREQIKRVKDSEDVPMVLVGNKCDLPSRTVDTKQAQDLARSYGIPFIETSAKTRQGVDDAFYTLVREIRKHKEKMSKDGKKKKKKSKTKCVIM
T3 sequence (P01116 1-188 isoform P01116-2): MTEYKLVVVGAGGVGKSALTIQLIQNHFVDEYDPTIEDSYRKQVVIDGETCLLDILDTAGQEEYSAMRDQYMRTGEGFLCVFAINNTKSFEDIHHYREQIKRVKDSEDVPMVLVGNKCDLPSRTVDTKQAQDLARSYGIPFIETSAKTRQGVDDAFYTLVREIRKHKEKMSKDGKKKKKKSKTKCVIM
T1 sequence (P01116 1-188 isoform P01116-2 G12S): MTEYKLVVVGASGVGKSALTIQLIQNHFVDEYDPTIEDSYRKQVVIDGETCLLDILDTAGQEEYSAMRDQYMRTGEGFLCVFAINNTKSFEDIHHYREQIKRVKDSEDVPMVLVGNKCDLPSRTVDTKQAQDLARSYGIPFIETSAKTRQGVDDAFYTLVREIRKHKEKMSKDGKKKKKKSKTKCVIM

Consider `N#CCCC1CN(CC(F)F)c2nc(OC[C@@]34CCCN3C[C@H](F)C4)nc3c(F)c(-c4ccc(F)c5sc(N)c(C#N)c45)c(Cl)c(c23)O1` (stereo partly drawn) [Compound 704, 2-amino-4-(8-chloro-6-(2-cyanoethyl)-4-(2,2-difluoroethyl)-10-fluoro-2-(((2R,7aS)-2-fluorotetrahydro-1H-pyrrolizin-7a(5H)-yl)methoxy)-5,6-dihydro-4H-[1,4]oxazepino[5,6,7-de]quinazolin-9-yl)-7-fluorobenzo[b]thiophene-3-carbonitrile], for which the IC50 in test [1] is below 0.1 µM; in test [2], below 0.1 µM; in test [3] it was below 0.1 µM; in test [4], below 5 µM; in test [5], below 0.5 µM; in test [6], below 0.1 µM. Besides, the IC50 in test [7] is below 5 µM.
As for `N#Cc1c(N)sc2c(F)ccc(-c3c(Cl)c4c5c(nc(OC[C@@]67CCCN6C[C@H](F)C7)nc5c3F)N(C3CCN(C(=O)[C@H]5CCCO5)C3)CCO4)c12` (stereo partly drawn) [Compound 705, 2-amino-4-(8-chloro-10-fluoro-2-(((2R,7aS)-2-fluorotetrahydro-1H-pyrrolizin-7a(5H)-yl)methoxy)-4-(1-((R)-tetrahydrofuran-2-carbonyl)pyrrolidin-3-yl)-5,6-dihydro-4H-[1,4]oxazepino[5,6,7-de]quinazolin-9-yl)-7-fluorobenzo[b]thiophene-3-carbonitrile], the IC50 is below 0.1 µM in test [1]; below 0.1 µM in test [2]; below 0.1 µM in test [3]; below 5 µM in test [4]; below 0.5 µM in test [5]; below 0.1 µM in test [6]. Also, the IC50 in test [7] is below 5 µM.
`N#Cc1c(N)sc2c(F)ccc(-c3c(Cl)c4c5c(nc(OC[C@@]67CCCN6C[C@H](F)C7)nc5c3F)N(CCOC(F)F)CCO4)c12` [Compound 713, 2-amino-4-(8-chloro-4-(2-(difluoromethoxy)ethyl)-10-fluoro-2-(((2R,7aS)-2-fluorotetrahydro-1H-pyrrolizin-7a(5H)-yl)methoxy)-5,6-dihydro-4H-[1,4]oxazepino[5,6,7-de]quinazolin-9-yl)-7-fluorobenzo[b]thiophene-3-carbonitrile]: the IC50 in test [1] is below 0.1 µM; in test [2] it was below 0.1 µM; in test [3] it was below 0.1 µM; in test [4] it was below 5 µM; in test [5] it was below 0.5 µM; in test [6], below 0.1 µM. Further, in test [7], the concentration for half-maximal inhibition (IC50) was below 5 µM.
Consider `N#Cc1c(N)sc2c(F)ccc(-c3c(Cl)c4c5c(nc(OC[C@@]67CCCN6C[C@H](F)C7)nc5c3F)N([C@@H]3CCN(C=O)C3)CCO4)c12` [Compound 716, 2-amino-4-(8-chloro-10-fluoro-2-(((2R,7aS)-2-fluorotetrahydro-1H-pyrrolizin-7a(5H)-yl)methoxy)-4-((R)-1-formylpyrrolidin-3-yl)-5,6-dihydro-4H-[1,4]oxazepino[5,6,7-de]quinazolin-9-yl)-7-fluorobenzo[b]thiophene-3-carbonitrile], for which the IC50 in test [1] is below 0.1 µM; in test [2] it was below 0.1 µM; in test [3], below 0.1 µM; in test [4], below 5 µM; in test [5] it was below 0.5 µM; in test [6], below 0.1 µM. Further, the IC50 in test [7] is below 5 µM.
`N#Cc1c(N)sc2c(F)ccc(-c3c(Cl)c4c5c(nc(OC[C@@]67CCCN6C[C@H](F)C7)nc5c3F)N(C3CCC(F)(F)C3)CCO4)c12` (stereo partly drawn) [Compound 717, 2-amino-4-(8-chloro-4-(3,3-difluorocyclopentyl)-10-fluoro-2-(((2R,7aS)-2-fluorotetrahydro-1H-pyrrolizin-7a(5H)-yl)methoxy)-5,6-dihydro-4H-[1,4]oxazepino[5,6,7-de]quinazolin-9-yl)-7-fluorobenzo[b]thiophene-3-carbonitrile]: the IC50 in test [1] is below 0.1 µM; in test [2], below 0.1 µM; in test [3], below 0.1 µM; in test [4] it was below 5 µM; in test [5], below 0.5 µM; in test [6], below 0.1 µM. For the same compound, in test [7], the IC50 is below 5 µM.
For the compound `N#Cc1c(N)sc2c(F)ccc(-c3c(Cl)c4c5c(nc(OC[C@@]67CCCN6C[C@H](F)C7)nc5c3F)N(C3CCC(C(F)F)C3)CCO4)c12` (stereo partly drawn) [Compound 718, 2-amino-4-(8-chloro-4-(3-(difluoromethyl)cyclopentyl)-10-fluoro-2-(((2R,7aS)-2-fluorotetrahydro-1H-pyrrolizin-7a(5H)-yl)methoxy)-5,6-dihydro-4H-[1,4]oxazepino[5,6,7-de]quinazolin-9-yl)-7-fluorobenzo[b]thiophene-3-carbonitrile], the IC50 was below 0.1 µM in test [1]; below 0.1 µM in test [2]; below 0.1 µM in test [3]; below 5 µM in test [4]; below 0.5 µM in test [5]; below 0.1 µM in test [6]. Moreover, the IC50 in test [7] is below 5 µM.
Take `N#Cc1c(N)sc2c(F)ccc(-c3c(Cl)c4c5c(nc(OC[C@@]67CCCN6C[C@H](F)C7)nc5c3F)N(CC(F)(F)F)CCO4)c12` [Compound 721, 2-amino-4-(8-chloro-10-fluoro-2-(((2R,7aS)-2-fluorotetrahydro-1H-pyrrolizin-7a(5H)-yl)methoxy)-4-(2,2,2-trifluoroethyl)-5,6-dihydro-4H-[1,4]oxazepino[5,6,7-de]quinazolin-9-yl)-7-fluorobenzo[b]thiophene-3-carbonitrile]: the IC50 was below 0.1 µM in test [1]; below 0.1 µM in test [2]; below 0.1 µM in test [3]; below 5 µM in test [4]; below 0.5 µM in test [5]; below 0.1 µM in test [6]. Moreover, the IC50 in test [7] was below 5 µM.
Turning to `CN(C)C1(CN2CCOc3c(Cl)c(-c4ccc(F)c5sc(N)c(C#N)c45)c(F)c4nc(OC[C@@]56CCCN5C[C@H](F)C6)nc2c34)CC1` [Compound 725, 2-amino-4-(8-chloro-4-((1-(dimethylamino)cyclopropyl)methyl)-10-fluoro-2-(((2R,7aS)-2-fluorotetrahydro-1H-pyrrolizin-7a(5H)-yl)methoxy)-5,6-dihydro-4H-[1,4]oxazepino[5,6,7-de]quinazolin-9-yl)-7-fluorobenzo[b]thiophene-3-carbonitrile], the IC50 in test [1] was below 0.1 µM; in test [2] it was below 0.1 µM; in test [3] it was below 0.1 µM; in test [4] it was below 5 µM; in test [5], below 0.5 µM; in test [6], below 0.1 µM. For the same compound, the IC50 in test [7] was below 5 µM.
For `C=C[C@H]1COc2c(Cl)c(-c3ccc(F)c4sc(N)c(C#N)c34)c(F)c3nc(OC[C@@]45CCCN4C[C@H](F)C5)nc(c23)N1C1CCOC1` (stereo partly drawn) [Compound 726, 2-amino-4-((5S)-8-chloro-10-fluoro-2-(((2R,7aS)-2-fluorotetrahydro-1H-pyrrolizin-7a(5H)-yl)methoxy)-4-(tetrahydrofuran-3-yl)-5-vinyl-5,6-dihydro-4H-[1,4]oxazepino[5,6,7-de]quinazolin-9-yl)-7-fluorobenzo[b]thiophene-3-carbonitrile], the IC50 is below 0.1 µM in test [1]; below 0.1 µM in test [2]; below 0.1 µM in test [3]; below 5 µM in test [4]; below 0.5 µM in test [5]; below 0.1 µM in test [6]. In addition, the IC50 in test [7] is below 5 µM.
